According to ChEMBL document CHEMBL1201862, “PubChem BioAssay data set” (2004):
The source made the active and inactive calls. Cut-off read from the data, not from the text of the source, for most assays here: actives have a measured IC50 and inactives only a lower limit.

What was measured:
[1] = target: T1, Sentrin-specific protease 7 (Homo sapiens, UniProt Q9BQF6); format: functional;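 note: Luminescence-based dose-response confirmation of ultra-high-throughput screening hits, measuring inhibition of SENP7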
T1 sequence (Q9BQF6 whole entry): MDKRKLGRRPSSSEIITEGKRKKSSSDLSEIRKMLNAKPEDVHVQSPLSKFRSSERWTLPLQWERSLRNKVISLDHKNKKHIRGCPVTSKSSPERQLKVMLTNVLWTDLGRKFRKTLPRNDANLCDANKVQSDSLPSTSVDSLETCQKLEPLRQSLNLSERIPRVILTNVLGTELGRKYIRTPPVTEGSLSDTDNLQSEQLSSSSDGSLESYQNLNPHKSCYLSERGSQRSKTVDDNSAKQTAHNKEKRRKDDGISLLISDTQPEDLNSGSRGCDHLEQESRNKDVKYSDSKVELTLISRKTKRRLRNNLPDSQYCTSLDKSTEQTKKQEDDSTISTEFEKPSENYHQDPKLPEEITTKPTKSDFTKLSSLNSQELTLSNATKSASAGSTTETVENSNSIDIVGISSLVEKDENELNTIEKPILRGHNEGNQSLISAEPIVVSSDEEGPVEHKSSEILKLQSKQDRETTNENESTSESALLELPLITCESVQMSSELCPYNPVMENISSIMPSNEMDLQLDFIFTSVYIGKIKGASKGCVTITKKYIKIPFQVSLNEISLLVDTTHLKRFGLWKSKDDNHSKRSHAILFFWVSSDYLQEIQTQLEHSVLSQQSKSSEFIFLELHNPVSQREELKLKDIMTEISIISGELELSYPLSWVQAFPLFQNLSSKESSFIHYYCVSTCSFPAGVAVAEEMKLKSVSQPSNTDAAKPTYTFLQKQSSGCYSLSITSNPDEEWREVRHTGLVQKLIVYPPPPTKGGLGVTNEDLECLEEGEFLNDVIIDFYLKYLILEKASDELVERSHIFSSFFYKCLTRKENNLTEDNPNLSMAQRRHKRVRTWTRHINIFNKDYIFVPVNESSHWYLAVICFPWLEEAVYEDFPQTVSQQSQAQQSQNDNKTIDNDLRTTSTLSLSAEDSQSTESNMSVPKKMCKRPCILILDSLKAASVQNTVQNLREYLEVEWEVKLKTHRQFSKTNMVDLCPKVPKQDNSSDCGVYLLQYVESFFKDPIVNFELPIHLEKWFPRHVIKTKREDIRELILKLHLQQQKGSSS

[2] = target: T2, Sentrin-specific protease 8 (Homo sapiens, UniProt Q96LD8); format: functional;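 note: luminescence read-out of SENP8 inhibition, dose-response confirmation following an ultra-high-throughput screen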
T2 sequence (Q96LD8 whole entry): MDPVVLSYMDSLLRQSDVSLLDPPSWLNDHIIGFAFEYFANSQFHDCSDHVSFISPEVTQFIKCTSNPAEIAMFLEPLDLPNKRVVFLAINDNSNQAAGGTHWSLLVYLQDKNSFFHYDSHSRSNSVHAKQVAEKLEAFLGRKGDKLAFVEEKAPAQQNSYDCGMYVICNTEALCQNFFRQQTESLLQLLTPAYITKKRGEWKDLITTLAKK

[3] = target: T3, Histone-lysine N-methyltransferase NSD2 (Homo sapiens, UniProt O96028); format: biochemical
T3 sequence (O96028 whole entry): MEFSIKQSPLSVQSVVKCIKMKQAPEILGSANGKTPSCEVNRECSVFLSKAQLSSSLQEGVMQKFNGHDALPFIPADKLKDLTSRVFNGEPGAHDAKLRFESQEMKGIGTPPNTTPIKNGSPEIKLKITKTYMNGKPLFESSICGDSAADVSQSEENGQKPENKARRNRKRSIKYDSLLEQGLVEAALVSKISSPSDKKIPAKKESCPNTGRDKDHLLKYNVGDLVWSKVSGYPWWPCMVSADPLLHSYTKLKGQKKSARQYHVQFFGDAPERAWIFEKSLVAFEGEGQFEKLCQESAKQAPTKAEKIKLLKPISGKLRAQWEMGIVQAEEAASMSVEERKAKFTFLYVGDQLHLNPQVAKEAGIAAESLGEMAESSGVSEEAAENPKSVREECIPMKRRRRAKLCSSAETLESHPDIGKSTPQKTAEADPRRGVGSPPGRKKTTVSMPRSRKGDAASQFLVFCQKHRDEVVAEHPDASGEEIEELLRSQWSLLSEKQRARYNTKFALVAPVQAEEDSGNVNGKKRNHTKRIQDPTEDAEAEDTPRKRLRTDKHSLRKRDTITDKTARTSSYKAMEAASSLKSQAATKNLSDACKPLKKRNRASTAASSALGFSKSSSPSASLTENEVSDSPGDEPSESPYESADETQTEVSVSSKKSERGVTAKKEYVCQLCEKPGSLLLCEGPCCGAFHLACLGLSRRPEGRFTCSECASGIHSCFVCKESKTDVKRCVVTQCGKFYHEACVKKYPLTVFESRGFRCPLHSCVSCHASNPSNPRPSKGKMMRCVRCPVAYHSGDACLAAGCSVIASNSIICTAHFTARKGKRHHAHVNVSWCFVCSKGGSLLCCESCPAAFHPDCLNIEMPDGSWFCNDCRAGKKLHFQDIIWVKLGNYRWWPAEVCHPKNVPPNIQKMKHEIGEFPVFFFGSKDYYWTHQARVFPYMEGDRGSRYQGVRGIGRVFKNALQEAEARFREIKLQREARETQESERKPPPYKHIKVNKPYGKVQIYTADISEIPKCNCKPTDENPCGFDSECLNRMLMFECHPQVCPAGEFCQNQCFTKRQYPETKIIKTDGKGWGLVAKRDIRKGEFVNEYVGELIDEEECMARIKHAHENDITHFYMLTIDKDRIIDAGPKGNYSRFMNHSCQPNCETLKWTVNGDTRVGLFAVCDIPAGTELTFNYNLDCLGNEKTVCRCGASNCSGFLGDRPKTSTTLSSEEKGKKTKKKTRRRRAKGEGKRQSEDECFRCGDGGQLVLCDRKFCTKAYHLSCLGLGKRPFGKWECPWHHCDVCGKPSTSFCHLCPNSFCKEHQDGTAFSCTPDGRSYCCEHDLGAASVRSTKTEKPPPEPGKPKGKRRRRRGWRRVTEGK

O=C(COC(=O)c1ccc([N+](=O)[O-])s1)NCCc1ccccc1
IC50 [1]: 7.56 µM (active) | IC50 [2]: 4.74 µM (active) | AC50 [3]: > 20 µM (inactive)

CCOC(=O)c1c(NS(=O)(=O)c2ccccc2)n(CCCOC)c2nc3ccccc3nc12
IC50 [1]: 1.02 µM (active) | IC50 [2]: 1.91 µM (active) | AC50 [3]: 12.1 µM (active)
